These results are taken from publication PMC5218480 (PLoS ONE, 2017).

Structures are written as SMILES.

In the assay the test system is MV-4-11 cells. Briefly: Gene expression microarray analysis (Affymetrix PrimeView) and GSEA. The settings on record: ProbeSet 11723475_a_at; LIST B. Further details: RFU PODN (11730768_x_at) / Fold change /veh PODN (11730768_x_at) / RFU LINC00158 (11744669_a_at) / Fold change /veh LINC00158 (11744669_a_at) / RFU DUSP10 (11751237_a_at) / Fold change /veh DUSP10 (11751237_a_at) / RFU ID3 (11757404_x_at) / Fold change /veh ID3 (11757404_x_at) / RFU PLEKHG5 (11737974_s_at) / Fold change /veh PLEKHG5 (11737974_s_at) / RFU LRRC4B (11730491_at) / Fold change /veh LRRC4B (11730491_at) / RFU GIMAP4 (11747438_a_at) / Fold change /veh GIMAP4 (11747438_a_at) / RFU KRT8 (11758183_x_at) / Fold change /veh KRT8 (11758183_x_at) / RFU CNN1 (11734310_a_at) / Fold change /veh CNN1 (11734310_a_at) / RFU VPS37D (11726825_at) / Fold change /veh VPS37D (11726825_at) / RFU C10orf10 (11716522_x_at) / Fold change /veh C10orf10 (11716522_x_at) / RFU KIR2DL2 /// KIR2DL4 /// KIR2DL5A /// KIR2DL5B /// KIR2DS1 /// KIR2DS2 /// KIR2DS3 /// KIR2DS4 /// KIR3DL3 /// KIR3DL3 /// KIR3DS1 (11738374_at) / Fold change /veh KIR2DL2 /// KIR2DL4 /// KIR2DL5A /// KIR2DL5B /// KIR2DS1 /// KIR2DS2 /// KIR2DS3 /// KIR2DS4 /// KIR3DL3 /// KIR3DL3 /// KIR3DS1 (11738374_at) / RFU C1QL1 (11718748_at) / Fold change /veh C1QL1 (11718748_at) / RFU TMPRSS4 (11747572_a_at) / Fold change /veh TMPRSS4 (11747572_a_at) / RFU HAMP (11756126_x_at) / Fold change /veh HAMP (11756126_x_at) / RFU RNFT2 (11725882_a_at) / Fold change /veh RNFT2 (11725882_a_at) / RFU NR4A2 (11747474_a_at) / Fold change /veh NR4A2 (11747474_a_at) / RFU ABCC12 (11746883_a_at) / Fold change /veh ABCC12 (11746883_a_at) / RFU TMEM136 (11760407_x_at) / Fold change /veh TMEM136 (11760407_x_at) / RFU CLDN22 /// WWC2 (11732394_at) / Fold change /veh CLDN22 /// WWC2 (11732394_at) / RFU HLA-DPB1 (11760878_x_at) / Fold change /veh HLA-DPB1 (11760878_x_at) / RFU SPINT1 (11716480_a_at) / Fold change /veh SPINT1 (11716480_a_at) / RFU GAP43 (11754022_s_at) / Fold change /veh GAP43 (11754022_s_at) / RFU A4GNT (11735810_at) / Fold change /veh A4GNT (11735810_at) / RFU PRB3 (11715151_x_at) / Fold change /veh PRB3 (11715151_x_at) / RFU TUBB4B (11761932_at) / Fold change /veh TUBB4B (11761932_at) / RFU CAPN14 (11732068_a_at) / Fold change /veh CAPN14 (11732068_a_at) / RFU TMCC2 (11721928_a_at) / Fold change /veh TMCC2 (11721928_a_at) / RFU IRGQ (11745062_a_at) / Fold change /veh IRGQ (11745062_a_at) / RFU FAM174B (11720279_a_at) / Fold change /veh FAM174B (11720279_a_at) / RFU TMPRSS4 (11748680_a_at) / Fold change /veh TMPRSS4 (11748680_a_at) / RFU FAM212B (11763350_a_at) / Fold change /veh FAM212B (11763350_a_at) / RFU PLEKHG5 (11743358_a_at) / Fold change /veh PLEKHG5 (11743358_a_at) / RFU ZSCAN30 (11745921_a_at) / Fold change /veh ZSCAN30 (11745921_a_at) / RFU CMKLR1 (11741424_a_at) / Fold change /veh CMKLR1 (11741424_a_at) / RFU LOC101060620 /// MAPK8IP1 (11723275_at) / Fold change /veh LOC101060620 /// MAPK8IP1 (11723275_at) / RFU SPTSSB (11747773_x_at) / Fold change /veh SPTSSB (11747773_x_at) / RFU PRSS12 (11739890_at) / Fold change /veh PRSS12 (11739890_at) / RFU BIN1 (11741810_x_at) / Fold change /veh BIN1 (11741810_x_at) / RFU WNT11 (11732464_a_at) / Fold change /veh WNT11 (11732464_a_at) / RFU C10orf10 (11716521_a_at) / Fold change /veh C10orf10 (11716521_a_at) / RFU C5orf56 (11738089_at) / Fold change /veh C5orf56 (11738089_at) / RFU CYB561 (11721691_x_at) / Fold change /veh CYB561 (11721691_x_at) / RFU ANKRD19P (11752326_a_at) / Fold change /veh ANKRD19P (11752326_a_at) / RFU OR2T12 /// OR2T33 /// OR2T8 (11738714_s_at) / Fold change /veh OR2T12 /// OR2T33 /// OR2T8 (11738714_s_at) / RFU VCAN (11748164_a_at) / Fold change /veh VCAN (11748164_a_at) / RFU JSRP1 (11732532_at) / Fold change /veh JSRP1 (11732532_at) / RFU KRTAP10-11 (11738290_x_at) / Fold change /veh KRTAP10-11 (11738290_x_at) / RFU MYO3A (11730013_a_at) / Fold change /veh MYO3A (11730013_a_at) / RFU EBF3 (11725865_a_at) / Fold change /veh EBF3 (11725865_a_at) / RFU CAMK2N1 (11719241_x_at) / Fold change /veh CAMK2N1 (11719241_x_at) / RFU C5orf56 (11738088_a_at) / Fold change /veh C5orf56 (11738088_a_at) / RFU OLFML3 (11715873_a_at) / Fold change /veh OLFML3 (11715873_a_at) / RFU LOC100653217 /// NTM (11731650_a_at) / Fold change /veh LOC100653217 /// NTM (11731650_a_at) / RFU MAPK11 (11762145_a_at) / Fold change /veh MAPK11 (11762145_a_at) / RFU FIZ1 (11724087_x_at) / Fold change /veh FIZ1 (11724087_x_at) / RFU OASL (11726364_x_at) / Fold change /veh OASL (11726364_x_at) / RFU SOX15 (11748057_x_at) / Fold change /veh SOX15 (11748057_x_at) / RFU CD79A (11719716_a_at) / Fold change /veh CD79A (11719716_a_at) / RFU HIST1H1D (11736915_at) / Fold change /veh HIST1H1D (11736915_at) / RFU CASKIN2 (11723855_a_at) / Fold change /veh CASKIN2 (11723855_a_at) / RFU LOC730098 (11760151_x_at) / Fold change /veh LOC730098 (11760151_x_at) / RFU OR4N2 (11742367_at) / Fold change /veh OR4N2 (11742367_at) / RFU PRRT2 (11749266_a_at) / Fold change /veh PRRT2 (11749266_a_at) / RFU SNX32 (11753110_a_at) / Fold change /veh SNX32 (11753110_a_at) / RFU CDHR5 (11726645_a_at) / Fold change /veh CDHR5 (11726645_a_at) / RFU RCAN1 (11760418_a_at) / Fold change /veh RCAN1 (11760418_a_at) / RFU FAM167A (11723789_a_at) / Fold change /veh FAM167A (11723789_a_at) / RFU FAM26E (11764081_at) / Fold change /veh FAM26E (11764081_at) / RFU ISYNA1 (11749810_s_at) / Fold change /veh ISYNA1 (11749810_s_at) / RFU ACY1 (11761880_at) / Fold change /veh ACY1 (11761880_at) / RFU 11764098_at / Fold change /veh 11764098_at / RFU SAMD14 (11745864_x_at) / Fold change /veh SAMD14 (11745864_x_at) / RFU NPB (11741838_a_at) / Fold change /veh NPB (11741838_a_at) / RFU TMPRSS6 (11731388_a_at) / Fold change /veh TMPRSS6 (11731388_a_at) / RFU KRTAP10-2 (11738614_at) / Fold change /veh KRTAP10-2 (11738614_at) / RFU ARHGAP8 /// PRR5-ARHGAP8 (11727945_x_at) / Fold change /veh ARHGAP8 /// PRR5-ARHGAP8 (11727945_x_at) / RFU KRTAP5-7 /// NADSYN1 (11734609_at) / Fold change /veh KRTAP5-7 /// NADSYN1 (11734609_at) / RFU RASL12 (11751679_a_at) / Fold change /veh RASL12 (11751679_a_at) / RFU CDKN2B (11736163_a_at) / Fold change /veh CDKN2B (11736163_a_at) / RFU PRF1 (11729649_at) / Fold change /veh PRF1 (11729649_at) / RFU, ZNF638 /// ZNF638-IT1 / Fold change vs veh, ZNF638 /// ZNF638-IT1 / RFU, PANK3 / Fold change vs veh, PANK3 / RFU, SH3YL1 / Fold change vs veh, SH3YL1 / RFU, ZEB2 / Fold change vs veh, ZEB2 / RFU, NRIP1 / Fold change vs veh, NRIP1 / RFU, PTTG1IP / Fold change vs veh, PTTG1IP / RFU, CAPN2 / Fold change vs veh, CAPN2 / RFU, MED14 / Fold change vs veh, MED14 / RFU, SNORA58 / Fold change vs veh, SNORA58 / RFU, C1orf63 / Fold change vs veh, C1orf63 / RFU, LRRFIP1 / Fold change vs veh, LRRFIP1 / RFU, NDUFAF7 / Fold change vs veh, NDUFAF7 / RFU, SLC12A2 / Fold change vs veh, SLC12A2 / RFU, IBTK / Fold change vs veh, IBTK / RFU, ESF1 / Fold change vs veh, ESF1 / Fold change vs veh, TMEM50B / RFU, TAOK1 / Fold change vs veh, TAOK1 / RFU, ACBD3 / Fold change vs veh, ACBD3 / RFU, TMA16 / Fold change vs veh, TMA16 / RFU, RWDD3 / Fold change vs veh, RWDD3 / RFU, BCAT1 / Fold change vs veh, BCAT1 / RFU, EDEM3 / Fold change vs veh, EDEM3 / RFU, TMEM33 / Fold change vs veh, TMEM33 / RFU, WDR75 / Fold change vs veh, WDR75 / RFU, AHCTF1 / Fold change vs veh, AHCTF1 / RFU, TFRC / Fold change vs veh, TFRC / RFU, ZDHHC17 / Fold change vs veh, ZDHHC17 / RFU, NOM1 / Fold change vs veh, NOM1 / RFU, ARL8B / Fold change vs veh, ARL8B / RFU, ZBTB11 / Fold change vs veh, ZBTB11 / RFU, TAMM41 / Fold change vs veh, TAMM41 / RFU, KIAA1704 /// LOC100996395 / Fold change vs veh, KIAA1704 /// LOC100996395 / RFU, ING1 / Fold change vs veh, ING1 / RFU, TRMT61B / Fold change vs veh, TRMT61B / RFU, FUBP3 / Fold change vs veh, FUBP3 / RFU, TP53 / Fold change vs veh, TP53 / RFU, TNKS2 / Fold change vs veh, TNKS2 / RFU, ZFP14 / Fold change vs veh, ZFP14 / RFU, ACTR2 / Fold change vs veh, ACTR2 / RFU, PPP3R1 / Fold change vs veh, PPP3R1 / RFU, PIK3R1 / Fold change vs veh, PIK3R1 / RFU, HNRNPA1 / Fold change vs veh, HNRNPA1 / RFU, RNF170 / Fold change vs veh, RNF170 / RFU, ZNF28 / Fold change vs veh, ZNF28 / RFU, RNGTT / Fold change vs veh, RNGTT / RFU, OGT / Fold change vs veh, OGT / RFU, BRD1 / Fold change vs veh, BRD1 / RFU, MARS / Fold change vs veh, MARS / RFU, ZNF655 / Fold change vs veh, ZNF655 / RFU, FAHD1 / Fold change vs veh, FAHD1 / RFU, BDP1 / Fold change vs veh, BDP1 / RFU, LRRCC1 / Fold change vs veh, LRRCC1 / RFU, ARID1A / Fold change vs veh, ARID1A / RFU, ZNF146 / Fold change vs veh, ZNF146 / RFU, ZNF330 / Fold change vs veh, ZNF330 / RFU, GPN3 / Fold change vs veh, GPN3 / RFU, C9orf123 / Fold change vs veh, C9orf123 / RFU, N4BP2L2 / Fold change vs veh, N4BP2L2 / RFU, ARFIP1 / Fold change vs veh, ARFIP1 / RFU, FAM179B / Fold change vs veh, FAM179B / RFU, BCL10 / Fold change vs veh, BCL10 / RFU, UHRF1BP1L / Fold change vs veh, UHRF1BP1L / RFU, BET1 / Fold change vs veh, BET1 / RFU, CNOT2 / Fold change vs veh, CNOT2 / RFU, ZNF268 / Fold change vs veh, ZNF268 / Fold change vs veh, ZNF507 / RFU, DGCR2 / Fold change vs veh, DGCR2 / RFU, WDSUB1 / Fold change vs veh, WDSUB1 / Fold change vs veh, HSP90B1 /// MIR3652 / RFU, ADSS / Fold change vs veh, ADSS / RFU, GK / Fold change vs veh, GK / RFU, ZNF148 / Fold change vs veh, ZNF148 / RFU, TAF9 / Fold change vs veh, TAF9 / RFU, SLC1A5 / Fold change vs veh, SLC1A5 / RFU, SLMO2 / Fold change vs veh, SLMO2 / RFU, ABCC4 / Fold change vs veh, ABCC4 / RFU, LOC101060439 /// RAP1B / Fold change vs veh, LOC101060439 /// RAP1B / RFU, RFX7 / Fold change vs veh, RFX7 / RFU, GTPBP10 / Fold change vs veh, GTPBP10 / RFU, CNEP1R1 / Fold change vs veh, CNEP1R1 / RFU, BIVM-ERCC5 /// ERCC5 / Fold change vs veh, BIVM-ERCC5 /// ERCC5 / RFU, ILF3 / Fold change vs veh, ILF3 / RFU 11762660_at / Fold change /veh 11762660_at / RFU VCAN (11757783_s_at) / Fold change /veh VCAN (11757783_s_at) / RFU DDX43 (11728927_at) / Fold change /veh DDX43 (11728927_at) / RFU KRT8 (11758188_x_at) / Fold change /veh KRT8 (11758188_x_at) / RFU NKD1 (11759106_at) / Fold change /veh NKD1 (11759106_at) / RFU SRD5A1 (11742802_a_at) / Fold change /veh SRD5A1 (11742802_a_at) / RFU TPSAB1 /// TPSB2 (11721975_s_at) / Fold change /veh TPSAB1 /// TPSB2 (11721975_s_at) / RFU GSTM3 (11746129_a_at) / Fold change /veh GSTM3 (11746129_a_at) / RFU IL23R (11737362_x_at) / Fold change /veh IL23R (11737362_x_at) / RFU TMEM51 (11727254_a_at) / Fold change /veh TMEM51 (11727254_a_at) / RFU PIWIL2 (11732686_x_at) / Fold change /veh PIWIL2 (11732686_x_at) / RFU ORM1 (11744905_x_at) / Fold change /veh ORM1 (11744905_x_at) / RFU CCDC152 (11743942_at) / Fold change /veh CCDC152 (11743942_at) / RFU ECM1 (11717891_a_at) / Fold change /veh ECM1 (11717891_a_at) / RFU IL23R (11748794_a_at) / Fold change /veh IL23R (11748794_a_at) / RFU TNFAIP8L3 (11732012_x_at) / Fold change /veh TNFAIP8L3 (11732012_x_at) / RFU MBOAT4 (11741988_at) / Fold change /veh MBOAT4 (11741988_at) / RFU 11764193_at / Fold change /veh 11764193_at / RFU TMEM53 (11763286_at) / Fold change /veh TMEM53 (11763286_at) / RFU MAGEB2 (11727129_at) / Fold change /veh MAGEB2 (11727129_at) / RFU TMEM200A (11744735_a_at) / Fold change /veh TMEM200A (11744735_a_at) / RFU CCDC152 (11751479_a_at) / Fold change /veh CCDC152 (11751479_a_at) / RFU FAM211A (11726209_a_at) / Fold change /veh FAM211A (11726209_a_at) / RFU RGS16 (11746705_a_at) / Fold change /veh RGS16 (11746705_a_at) / RFU VCAN (11755009_s_at) / Fold change /veh VCAN (11755009_s_at) / RFU RHOB (11743442_s_at) / Fold change /veh RHOB (11743442_s_at) / RFU RGS16 (11720943_a_at) / Fold change /veh RGS16 (11720943_a_at) / RFU RGS16 (11720944_at) / Fold change /veh RGS16 (11720944_at) / RFU, VPS4B / Fold change vs veh, VPS4B / RFU, CREB1 / Fold change vs veh, CREB1 / RFU, DNAJC13 / Fold change vs veh, DNAJC13 / RFU, GNAQ / Fold change vs veh, GNAQ / RFU, CDK5R1 / Fold change vs veh, CDK5R1 / RFU, ZRANB3 / Fold change vs veh, ZRANB3 / RFU, CUL4A / Fold change vs veh, CUL4A / RFU, CCNY / Fold change vs veh, CCNY / RFU, UFL1 / Fold change vs veh, UFL1 / RFU, COG3 / Fold change vs veh, COG3 / RFU, DIAPH2 / Fold change vs veh, DIAPH2 / RFU, SKA2 / Fold change vs veh, SKA2 / RFU, AFF3 / Fold change vs veh, AFF3 / RFU, LMF1 / Fold change vs veh, LMF1 / RFU, IPO11 / Fold change vs veh, IPO11 / RFU, DFFB / Fold change vs veh, DFFB / RFU, FOXP1 / Fold change vs veh, FOXP1 / RFU, CARD8 / Fold change vs veh, CARD8 / RFU, STRN3 / Fold change vs veh, STRN3 / RFU, ADK / Fold change vs veh, ADK / RFU, RASSF2 / Fold change vs veh, RASSF2 / RFU, WIPF1 / Fold change vs veh, WIPF1 / RFU, LARP1B / Fold change vs veh, LARP1B / RFU, RASA1 / Fold change vs veh, RASA1 / RFU, RB1 / Fold change vs veh, RB1 / RFU, PPFIA1 / Fold change vs veh, PPFIA1 / RFU, MAT2A / Fold change vs veh, MAT2A / RFU, CCT5 / Fold change vs veh, CCT5 / RFU, WDR92 / Fold change vs veh, WDR92 / RFU, CUX1 / Fold change vs veh, CUX1 / RFU, TTC7A / Fold change vs veh, TTC7A / RFU, TMEM135 / Fold change vs veh, TMEM135 / RFU, DEPTOR / Fold change vs veh, DEPTOR / RFU, CPM / Fold change vs veh, CPM / RFU, DNAJB6 / Fold change vs veh, DNAJB6 / RFU, CACNA2D3 / Fold change vs veh, CACNA2D3 / RFU, DTX4 / Fold change vs veh, DTX4 / RFU, TFCP2 / Fold change vs veh, TFCP2 / RFU, GMCL1 /// GMCL1P1 / Fold change vs veh, GMCL1 /// GMCL1P1 / RFU, AEBP2 / Fold change vs veh, AEBP2 / RFU, SNHG1 /// SNORD22 /// SNORD25 /// SNORD26 /// SNORD27 /// SNORD28 /// SNORD29 /// SNORD31 / Fold change vs veh, SNHG1 /// SNORD22 /// SNORD25 /// SNORD26 /// SNORD27 /// SNORD28 /// SNORD29 /// SNORD31 / Fold change (Aza/veh), C12orf56 (ProbeSet 11735607_a_at) / Fold change (ACY-1035/veh), C12orf56 (ProbeSet 11735607_a_at) / Fold change (Aza/veh), FGFR1OP (ProbeSet 11751329_s_at) / Fold change (ACY-1035/veh), FGFR1OP (ProbeSet 11751329_s_at) / Fold change (Aza/veh), VPS36 (ProbeSet 11739960_a_at) / Fold change (ACY-1035/veh), VPS36 (ProbeSet 11739960_a_at) / RFU SYPL1 (11715823_x_at) / Fold change /veh SYPL1 (11715823_x_at) / RFU IGFBP7 (11715501_s_at) / Fold change /veh IGFBP7 (11715501_s_at) / RFU REEP3 (11722064_at) / Fold change /veh REEP3 (11722064_at) / RFU IGLL1 (11728026_x_at) / Fold change /veh IGLL1 (11728026_x_at): dose or concentration left out as unconfirmed. It counts as cell-based, human.

For `Nc1ncn([C@@H]2O[C@H](CO)[C@@H](O)[C@H]2O)c(=O)n1` [azacitidine], the “Fold change vs veh, TRMT61B” value is reported as 0.91.
